Assay results from patent US20040213837A1, “Oil-core compositions for the sustained release of hydrophobic drugs” (priority 2002, published 2004).
Converted amounts (≈) assume the structure as drawn. Where a name gives a salt, the structure may show the parent alone. Blank lines part the entries; values can stand above or below the molecule they belong to.

Experiments:
[1] = Solubility of bupivacaine free-base in triolein or tricaprylin; type: physicochemical
Experimental: To confirm that the formation of bupivacaine crystals was related to differing solubility of the drug in the oils used, a solubility experiment was performed. Varying amounts of bupivacaine free-base were added to 1.0 g aliquots of either triolein or tricaprylin in small vials with Teflon-lined screw caps. These vials were heated to ˜70° C., shaken vigorously, cooled to room temperature, then 1.0 mL of 10 mM lysine/5% sorbitol was added to each vial. The vials were put in a 4° C. cold room for a month. […] This vial was the only one in which a precipitate disappeared upon warming to room temperature.

[2] = system: response to pin pricks; test: Guinea pig intracutaneous injection, response to pin pricks; type: in vivo, guinea pigs; conditions: 1.0 mL intracutaneous, equivalent to 1% bupivacaine HCl monohydrate
Experimental: This is used in an assay of anesthetic effect. Previously shaved guinea pigs (4-5 per group) were marked with a stencil in the form of a circular array, with 17 tick marks at various radii and directions from the center of the array. Animals anesthetized with Halothane were injected intracutaneously with 1.0 mL of either the tricaprylin-core bupivacaine suspension or a solution of 1% bupivacaine HCl monohydrate in 5% sorbitol. The response to pin pricks was tested at various post-injection intervals (30 min, 3, 6, 9, 12, 18, 24, 30 and 36 hours) and the results summarized in FIG. 3. A vocalization or muscle twitch was considered a positive response. The guinea pigs' response to the bupivacaine solution decayed to half of its maximum at about 3.6 hours after injection. An equivalent (on a molar basis) dose of bupivacaine free base tricaprylin-core suspension took about 8½ hours to decay to the same number of negative responses, and took about 11 hours to decay to half of the maximal response for this formulation.

[3] = In vivo concentration-time course of paclitaxel after intraperitoneal injection; conditions: rat, 16 mg/kg intraperitoneal, OCP or conventional formulation, HPLC
Experimental: “Conventional” formulations of paclitaxel were prepared by adding 6 mg paclitaxel to 1 mL of a mixture (1:1, v/v) of anhydrous alcohol and Cremophor® EL (Sigma Chemical Company, St. Louis, Mo.). […] At the indicated time points, animals were euthanized and blood, peritoneal fluid, liver, and spleen samples were collected, processed and quickly frozen.
Paclitaxel concentrations in plasma, peritoneal fluid, and homogenized tissues were determined by HPLC after liquid-liquid extraction of the samples with diethyl ether followed by solid-phase extraction (Bond Elut; Varian, Harbor City, Calif.). The samples were then suspended in 45:15:40 acetonitrile:methanol:water, and 50 μL was injected onto a Waters Symmetry C18 column (Waters, Taunton, Mass.) with a Hewlett-Packard Model 1100 solvent delivery system (Hewlett-Packard, Wilmington, Del.). The mobile phase was a mixture of acetonitrile, methanol, and 0.2 M ammonium acetate at pH 5 (45:15:40) with a rate of 1 mL/min; detection was at a wavelength of 230 nm. Apparent terminal half-lives (T1/2beta) were estimated from the terminal log-linear decline of the concentration-time profiles.

[4] = system: microtubule bundling; conditions: Rowinsky et al., Cancer Research 48: 4093-4100, 1988; cited from earlier work
[5] = 4° C. for a month, with 10 mM lysine/5% sorbitol

bupivacaine content at which no precipitates were seen, in tricaprylin [1, 5]: ≤ 40 mg per g tricaprylin | bupivacaine content at which no precipitates were seen, in triolein [1, 5]: ≤ 20 mg per g triolein | bupivacaine content at which precipitates or large masses were seen, in tricaprylin [1, 5]: ≥ 50 mg per g tricaprylin | bupivacaine content at which precipitates or large masses were seen, in triolein [1, 5]: ≥ 30 mg per g triolein
Structure (SMILES): CCCCN1CCCCC1C(=O)Nc1c(C)cccc1C (centres unmarked) [bupivacaine free-base, bupivacaine]
relative solubility in tricaprylin and triolein [1]: more soluble in tricaprylin than in triolein

Structure (SMILES): CCCCN1CCCCC1C(=O)Nc1c(C)cccc1C (centres unmarked) [bupivacaine solution, bupivacaine HCl monohydrate]
time for response to decay to half of its maximum [2]: about 3.6 hours

Paclitaxel levels in plasma [3]: below the limit of detection
Structure (SMILES): CC(=O)O[C@H]1C(=O)[C@@]2(C)[C@H]([C@H](OC(=O)c3ccccc3)[C@]3(O)C[C@H](OC(=O)[C@H](O)[C@@H](NC(=O)c4ccccc4)c4ccccc4)C(C)=C1C3(C)C)[C@]1(OC(C)=O)CO[C@@H]1C[C@@H]2O [Paclitaxel, paclitaxel]
minimum inhibitory concentration required to induce microtubule bundling and other cytotoxic effects in vitro [4]: 0.085 µg/mL (≈ 0.0995 µM)
